Test results as given in ChEMBL document CHEMBL3352151, “In vitro and in vivo antibacterial evaluation and mechanistic study of ornithine based small cationic lipopeptides against antibiotic resistant clinical isolates” (Eur J Med Chem, 2014).
In brackets after ≈: the same amount, converted by molar mass. Square brackets hold non-standard residues; d marks the D form. Peptide text beside a SMILES is read from it. * marks the point of attachment. Myristoyl = CCCCCCCCCCCCCC(=O)*; Orn = NCCC[CH](N)C(=O)O

Experiments:
Enterococcus faecalis [1] = test: Antibacterial activity against clinical isolates of gentamicin-resistant Enterococcus faecalis GMCH/R-Gen011 after overnight incubation by microdilution broth assay; type: functional
Enterococcus faecium [2] = test: Antibacterial activity against clinical isolates of penicillin-resistant Enterococcus faecium GMCH/R-Pen003 after overnight incubation by microdilution broth assay; type: functional
Enterococcus faecalis [3] = test: Antibacterial activity against clinical isolates of Enterococcus faecalis GMCH/B0091 after overnight incubation by microdilution broth assay; type: functional
Staphylococcus aureus [4] = test: Antibacterial activity against clinical isolates of Staphylococcus aureus PGI/DML03054 after overnight incubation by microdilution broth assay; type: functional
Staphylococcus aureus [5] = test: Antibacterial activity against clinical isolates of methicillin-resistant Staphylococcus aureus PGI/DML03149 after overnight incubation by microdilution broth assay; type: functional
Acinetobacter baumannii [6] = test: Antibacterial activity against clinical isolates of Acinetobacter baumannii GMCH/B0083 after overnight incubation by microdilution broth assay; type: functional
Haemophilus influenzae [7] = test: Antibacterial activity against clinical isolates of ciprofloxacin-resistant Haemophilus influenzae PGI/DML01744 after overnight incubation by microdilution broth assay; type: functional
[8] = Cytotoxicity against human HaCaT cells assessed as cell viability at 500 ug/ml after 18 hrs by MTT assay; type: cell-based; conditions: read-out: Activity
Streptococcus pneumoniae [9] = test: Antibacterial activity against clinical isolates of Streptococcus pneumoniae PGI/DML02468 after overnight incubation by microdilution broth assay; type: functional
Acinetobacter baumannii [10] = test: Antibacterial activity against clinical isolates of imipenem-resistant Acinetobacter baumannii GMCH/R-Imi003 after overnight incubation by microdilution broth assay; type: functional
[11] = test system: Staphylococcus epidermidis; test: Antibacterial activity against clinical isolates of ampicillin-resistant Staphylococcus epidermidis GMCH/R-Amp008 after overnight incubation by microdilution broth assay; type: functional
Streptococcus pneumoniae [12] = test: Antibacterial activity against clinical isolates of erythromycin-resistant Streptococcus pneumoniae PGI/DML02213 after overnight incubation by microdilution broth assay; type: functional
[13] = test system: Staphylococcus epidermidis; test: Antibacterial activity against clinical isolates of Staphylococcus epidermidis GMCH/B0057 after overnight incubation by microdilution broth assay; type: functional
Escherichia coli [14] = test: Antibacterial activity against clinical isolates of imipenem-resistant Escherichia coli PGI/DML02292 after overnight incubation by microdilution broth assay; type: functional
Enterococcus faecium [15] = test: Antibacterial activity against clinical isolates of Enterococcus faecium GMCH/B0102 after overnight incubation by microdilution broth assay; type: functional
Escherichia coli [16] = test: Antibacterial activity against clinical isolates of Escherichia coli PGI/DML02250 after overnight incubation by microdilution broth assay; type: functional
Pseudomonas aeruginosa [17] = test: Antibacterial activity against clinical isolates of streptomycin-resistant Pseudomonas aeruginosa PGI/DML01991 after overnight incubation by microdilution broth assay; type: functional
Pseudomonas aeruginosa [18] = test: Antibacterial activity against clinical isolates of Pseudomonas aeruginosa PGI/DML02084 after overnight incubation by microdilution broth assay; type: functional
Haemophilus influenzae [19] = test: Antibacterial activity against clinical isolates of Haemophilus influenzae PGI/DML01751 after overnight incubation by microdilution broth assay; type: functional
Klebsiella pneumoniae [20] = test: Antibacterial activity against clinical isolates of kanamycin-resistant Klebsiella pneumoniae GMCH/R-Kan006 after overnight incubation by microdilution broth assay; type: functional
[21] = Cytotoxicity against human HaCaT cells assessed as cell viability at 100 ug/ml after 18 hrs by MTT assay; type: cell-based; conditions: read-out: Activity
Klebsiella pneumoniae [22] = test: Antibacterial activity against clinical isolates of Klebsiella pneumoniae GMCH/B0127 after overnight incubation by microdilution broth assay; type: functional

Structure (SMILES) | MIC (Enterococcus faecalis [1]) | MIC (Enterococcus faecium [2]) | MIC (Enterococcus faecalis [3]) | MIC (Staphylococcus aureus [4]) | MIC (Staphylococcus aureus [5]) | MIC (Acinetobacter baumannii [6]) | MIC (Haemophilus influenzae [7]) | viability at 18 h, 500 ug/ml [8] | MIC (Streptococcus pneumoniae [9]) | MIC (Acinetobacter baumannii [10]) | MIC [11] | MIC (Streptococcus pneumoniae [12]) | MIC [13] | MIC (Escherichia coli [14]) | MIC (Enterococcus faecium [15]) | MIC (Escherichia coli [16]) | MIC (Pseudomonas aeruginosa [17]) | MIC (Pseudomonas aeruginosa [18]) | MIC (Haemophilus influenzae [19]) | MIC (Klebsiella pneumoniae [20]) | further results
CCCCCCCCCCCCCCCC(=O)NC(CCCN)C(=O)NC(CCCN)C(=O)NC(CCCN)C(N)=O (stereo unspecified) | 5 µg/mL (≈ 8.36 µM) | 5 µg/mL (≈ 8.36 µM) | 3.1 µg/mL (≈ 5.18 µM) | 5 µg/mL (≈ 8.36 µM) | 4.5 µg/mL (≈ 7.53 µM) | 4 µg/mL (≈ 6.69 µM) | 5.5 µg/mL (≈ 9.2 µM) | > 80% | 3.1 µg/mL (≈ 5.18 µM) | 5.5 µg/mL (≈ 9.2 µM) | 5.5 µg/mL (≈ 9.2 µM) | 3.5 µg/mL (≈ 5.85 µM) | 4 µg/mL (≈ 6.69 µM) | 6.25 µg/mL (≈ 10.5 µM) | 3 µg/mL (≈ 5.02 µM) | 5.5 µg/mL (≈ 9.2 µM) | 3.1 µg/mL (≈ 5.18 µM) | 2.5 µg/mL (≈ 4.18 µM) | 5 µg/mL (≈ 8.36 µM) | 3.1 µg/mL (≈ 5.18 µM) | viability at 18 h, 100 ug/ml [21]: > 80%; MIC (Klebsiella pneumoniae [22]): 3.5 µg/mL (≈ 5.85 µM)
CCCCCCCCCCCCCCCCCC(=O)NC(CCCN)C(=O)NC(CCCN)C(=O)NC(CCCN)C(N)=O (stereo unspecified) | 6.25 µg/mL (≈ 9.98 µM) | 7.5 µg/mL (≈ 12 µM) | 2.5 µg/mL (≈ 3.99 µM) | 6.2 µg/mL (≈ 9.91 µM) | 5.5 µg/mL (≈ 8.79 µM) | 6.5 µg/mL (≈ 10.4 µM) | 7.5 µg/mL (≈ 12 µM) | > 80% | 2.5 µg/mL (≈ 3.99 µM) | 4.5 µg/mL (≈ 7.19 µM) | 5 µg/mL (≈ 7.99 µM) | 5 µg/mL (≈ 7.99 µM) | 7.5 µg/mL (≈ 12 µM) | 7.5 µg/mL (≈ 12 µM) | 4.5 µg/mL (≈ 7.19 µM) | 10 µg/mL (≈ 16 µM) | 4.5 µg/mL (≈ 7.19 µM) | 1.5 µg/mL (≈ 2.4 µM) | 10 µg/mL (≈ 16 µM) | 7.5 µg/mL (≈ 12 µM) | viability at 18 h, 100 ug/ml [21]: > 80%; MIC (Klebsiella pneumoniae [22]): 3.5 µg/mL (≈ 5.59 µM)
CCCCCCCCCC(=O)N[C@@H](Cc1c[nH]c2ccccc12)C(=O)N[C@H](CC(N)=O)C(=O)N[C@@H](CC(=O)O)C(=O)N[C@@H]1C(=O)NCC(=O)N[C@@H](CCCN)C(=O)N[C@@H](CC(=O)O)C(=O)N[C@H](C)C(=O)N[C@@H](CC(=O)O)C(=O)NCC(=O)N[C@H](CO)C(=O)N[C@@H]([C@H](C)CC(=O)O)C(=O)N[C@@H](CC(=O)c2ccccc2N)C(=O)O[C@@H]1C | 1.5 µg/mL (≈ 0.926 µM) | 2.5 µg/mL (≈ 1.54 µM) | 1.75 µg/mL (≈ 1.08 µM) | 0.7 µg/mL (≈ 0.432 µM) | 1.25 µg/mL (≈ 0.771 µM) | – | – | – | 1.25 µg/mL (≈ 0.771 µM) | – | 1.5 µg/mL (≈ 0.926 µM) | 1.5 µg/mL (≈ 0.926 µM) | 0.5 µg/mL (≈ 0.309 µM) | – | 2 µg/mL (≈ 1.23 µM) | – | – | – | – | – | –
CCCCCCCCCCCCCC(=O)NC(CCCN)C(=O)NC(CCCN)C(=O)NC(CCCN)C(=O)NC(CCCN)C(N)=O (stereo unspecified) (Myristoyl-[Orn][Orn][Orn][Orn]-NH2; configuration not given here) | 3.5 µg/mL (≈ 5.12 µM) | 5.5 µg/mL (≈ 8.04 µM) | 2 µg/mL (≈ 2.92 µM) | 4.5 µg/mL (≈ 6.58 µM) | 5 µg/mL (≈ 7.31 µM) | 5 µg/mL (≈ 7.31 µM) | 10 µg/mL (≈ 14.6 µM) | > 80% | 5.5 µg/mL (≈ 8.04 µM) | 5.5 µg/mL (≈ 8.04 µM) | 4.25 µg/mL (≈ 6.21 µM) | 7.5 µg/mL (≈ 11 µM) | 3.5 µg/mL (≈ 5.12 µM) | 10 µg/mL (≈ 14.6 µM) | 4 µg/mL (≈ 5.85 µM) | 2.5 µg/mL (≈ 3.66 µM) | 3 µg/mL (≈ 4.39 µM) | 3.1 µg/mL (≈ 4.53 µM) | 12.5 µg/mL (≈ 18.3 µM) | 6.25 µg/mL (≈ 9.14 µM) | viability at 18 h, 100 ug/ml [21]: > 80%; MIC (Klebsiella pneumoniae [22]): 4.5 µg/mL (≈ 6.58 µM)
